According to BindingDB's records for doi:10.1021/acs.biochem.6b01025 (Washington College, 2017):

Key:
[1] = target: T1, Tyrosine-protein phosphatase non-receptor type 1 [1-301] (Homo sapiens, UniProt P18031); assay: PTP1B Inhibition Assay
T1 construct: 1-301
T1 sequence (P18031 whole entry): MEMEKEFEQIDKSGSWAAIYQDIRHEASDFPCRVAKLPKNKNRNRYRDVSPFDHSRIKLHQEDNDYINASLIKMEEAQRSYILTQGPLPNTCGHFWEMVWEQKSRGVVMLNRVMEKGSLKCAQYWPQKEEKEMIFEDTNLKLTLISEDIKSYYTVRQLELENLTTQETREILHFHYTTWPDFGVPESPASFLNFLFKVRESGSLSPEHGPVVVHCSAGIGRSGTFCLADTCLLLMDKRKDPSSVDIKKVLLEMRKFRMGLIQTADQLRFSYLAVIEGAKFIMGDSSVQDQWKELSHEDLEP
Description: Kinetic parameters were determined by fitting the reaction rates to different inhibition models as a function of the inhibitor and pNPP concentrations using GraphPad Prism version 6.0d. The total reaction volume in all cases was 500 μL, and the temperature was maintained at 25 °C using a water-regulated cuvette holder.

[2] = target: T1, Tyrosine-protein phosphatase non-receptor type 1 [1-301]; assay: NMR Chemical Shift Titration Assay

SMILES: O=C(/C=C/c1ccc(O)c(O)c1)O[C@@H](C(=O)O)[C@@H](OC(=O)/C=C/c1ccc(O)c(O)c1)C(=O)O [Cichoric acid (CHA)]
- Ki [1]: 1400 µM
- Kd [2]: 1600 µM
